Results: ChEMBL document CHEMBL3045748, “A novel and eco-friendly procedure for the synthesis of some pyrazolo-thiadiazolo-pyrimidinones and its in vitro anti-bacterial activity” (2012)

Legend:
Type in all cases: functional
Details in all cases: read-out: DIZ
Staphylococcus aureus = test: Antibacterial activity against Staphylococcus aureus at 50 ug after 18 hr by Kirby-Bauer's disk diffusion assay
Bacillus subtilis = test: Antibacterial activity against Bacillus subtilis at 50 ug after 18 hr by Kirby-Bauer's disk diffusion assay
Klebsiella = test: Antibacterial activity against Klebsiella at 50 ug after 18 hr by Kirby-Bauer's disk diffusion assay
Escherichia coli = test: Antibacterial activity against Escherichia coli at 50 ug after 18 hr by Kirby-Bauer's disk diffusion assay

| Compound | zone of inhibition at 50 µg/disc (Staphylococcus aureus) [mm] | zone of inhibition at 50 µg/disc (Bacillus subtilis) [mm] | zone of inhibition at 50 µg/disc (Klebsiella) [mm] | zone of inhibition at 50 µg/disc (Escherichia coli) [mm] |
| --- | --- | --- | --- | --- |
| O=c1c2cnn(-c3ccccc3)c2nc2sc(CN3CCOCC3)nn12 | 7.5 | 7 | 14.5 | 9 |
| CC1(C)S[C@@H]2[C@H](NC(=O)[C@H](N)c3ccccc3)C(=O)N2[C@H]1C(=O)O [AMPICILLIN] | 22.5 | 23.3 | 24.5 | 18.5 |
| O=c1c2cnn(-c3ccccc3)c2nc2sc(CNc3ccccc3)nn12 | 14.5 | 14 | 12.5 | 10.5 |
| CCCCCCNCc1nn2c(=O)c3cnn(-c4ccccc4)c3nc2s1 | 17.5 | 20.5 | 11.5 | 11 |
| CCNCc1nn2c(=O)c3cnn(-c4ccccc4)c3nc2s1 | 18.5 | 16 | 12 | 10.5 |
| COc1ccc(NCc2nn3c(=O)c4cnn(-c5ccccc5)c4nc3s2)cc1 | 15.5 | 15.5 | 14 | 11.5 |
| Cc1cccc(NCc2nn3c(=O)c4cnn(-c5ccccc5)c4nc3s2)c1 | 16.5 | 17 | 12 | 9.5 |
| O=c1c2cnn(-c3ccccc3)c2nc2sc(CNCc3ccco3)nn12 | 20 | 18.5 | 13 | 8.5 |
| CNCc1nn2c(=O)c3cnn(-c4ccccc4)c3nc2s1 | 13.5 | 6.5 | 11.5 | 11 |
